The text below walks through data of patent publication US10899852B2, “Benzil monoketals and the use thereof” (Merck Patent GmbH, priority 2015, dated 2021).

SMILES strings stand for the structures.

The data set can be described thus: storage test of polymerisable liquid-crystal mixture P-1 with sealant containing photoinitiator, then UV irradiation in PS-VA test cells; RM-1 concentration by HPLC. The following applies: inferred from RM-1 polymerisation after storage 7 d at 80° C. How it is done: A polymerisable liquid-crystal mixture P-1 consisting of • 1. 99.7% by weight of the nematic liquid-crystal mixture M-1 and • 2. 0.3% by weight of the polymerisable compound RM-1
[drawing 37] is prepared. Three samples of in each case 0.5 g of mixture P-1 are stored together with in each case 1 g of the commercially available sealant Unocol 2094® (APM Technica GmbH, Pürgen-Ummendorf), the latter in each case containing • 1. no photoinitiator • 2. 3.0% by weight of the photoinitiator according to the invention from Example 1 • 3. 3.0% by weight of the commercially available photoinitiator Irgacure651® of the structure shown below in a tightly sealed vial at 80° C. for 7 d with exclusion of air and light. A fourth sample of mixture P-1 is stored under the same conditions without the presence of sealant (blank experiment).
The mixtures are subsequently separated off from the sealant, in each case divided into two parts, introduced into PS-VA test cells and irradiated with a metal halide UV lamp with an intensity of 100 mW/cm^2 at 40° C. for a duration of 60 s or 180 s.
The PS-VA test cells consist of two plane-parallel glass plates having a cell gap of 4 μm, each of which are coated with an ITO electrode and with a polyimide alignment layer on top.
After the irradiation, the concentration of the polymerisable compound RM-1 is determined by HPLC.

Take `COC(OC)(C(=O)c1ccc(OCC(O)CO)cc1)c1ccc(OCC(O)CO)cc1` (centres unmarked) [Example 1, 1,2-Bis[4-(2,3-dihydroxypropoxy)phenyl]-2,2-dimethoxyethanone]: the “photoinitiator dissolved out of the sealant into the liquid crystal during the storage test” value is reported as “no photoinitiator according to the invention has been dissolved out of the sealant”.

As for `COC(OC)(C(=O)c1ccccc1)c1ccccc1` [Irgacure651®], the “photoinitiator dissolved out of the sealant into the liquid crystal during the storage test” value is listed as “considerable amounts of photoinitiator have dissolved in the liquid-crystal mixture”.
